The values that follow come from patent US20260076973A1 (priority 2023, published 2026).

Counter-ions that a name gives are not always drawn. Like-named read-outs stand apart in the source and are kept apart here. Where a SMILES comes first, the peptide text is derived from it.

One series relates to VeroE6 cells. The series can be described thus: Cytotoxicity counter screen in Vero E6 cells (Cell Titer-Glo). Conditions: read-out: Cytotoxicity CC50; reference compounds, Vero E6 cells, 72 hours.
The subject of the next series is SARS-CoV-2 (WA1). Briefly: microbe, parasite or virus in culture. The class given is cell-based. The following applies: for antiviral effect of positive controls in the CPE assay: SARS-CoV-2 CPE assay.
Series [1] in a line: Cytotoxicity counter screen in Vero E6 cells (Cell Titer-Glo). The following applies: African green monkey. On the technique in general: Counterscreens check selectivity or assay interference.
The subject of a further series is 229E virus. The series can be described thus: 229E coronavirus infection assay in Huh7.5 cells. It is filed as cell-based. The following applies: read-out: 229E IC50.
In the next series the test system is OC43 virus. Briefly: OC43 coronavirus infection assay in Huh7.5 cells. It is filed as cell-based. Conditions: read-out: OC43 IC50.
Series [2] deals with SARS CoV-2 nanoluciferase reporter virus (NLRV). The series can be described thus: microbe, parasite or virus in culture. Conditions: Severe acute respiratory syndrome coronavirus 2, A549-ACE2, 72 h. It is filed as cell-based.
The mark [3] stands for this setting: Severe acute respiratory syndrome coronavirus 2, Vero C1008, 72 h, reference compounds, SARS-CoV-2 (WA1) CPE assay, Round 2, Vero E6, 72 hours, read-out: Antiviral IC50.
The mark [4] stands for this setting: Severe acute respiratory syndrome coronavirus 2, Vero C1008.
[5] abbreviates: Betacoronavirus 1, OC43, Huh7.5, 72 h.
The mark [6] stands for this setting: Severe acute respiratory syndrome coronavirus 2, Vero C1008, VIRADEM compounds, SARS-CoV-2(WA1) CPE assay, Round 2, concentration range 1000-0.05 nM, Vero E6, read-out: IC50.
The mark [7] stands for this setting: VIRADEM compounds, SARS-CoV-2(WA1) CPE assay, Round 2, concentration range 1000-0.05 nM, Vero E6, read-out: IC50.

For the molecule `CC(C)C[C@H](NC(=O)OCc1ccccc1)C(=O)N[C@@H](CC(C)C)C(=O)N[C@@H](Cc1ccc(O)cc1)C(=O)CF` [Calpain Inhibitor IV, reference compound] (HELM PEPTIDE1{[O=C(OCc1ccccc1)[*:2]].L.L.Y.[FC[*:1]]}$$$$V2.0), in the series with VeroE6 cells, the CC50 (usually the concentration giving 50% cytotoxicity) was greater than 7.17 µM. The “antiviral effect of positive controls in the CPE assay” value in the series on SARS-CoV-2 (WA1) was “dose dependent antiviral effect”. In the series on SARS-CoV-2 (WA1) (reference compounds, SARS-CoV-2 (WA1) CPE assay, Round 2, Vero E6, 72 hours, read-out: Antiviral IC50), the IC50 (in general, the point on the concentration scale where inhibition reaches its midpoint) came to 240 nM. Molecule `CCN(CC)CCCC(C)Nc1ccnc2cc(Cl)ccc12` (stereo not drawn) [Chloroquine, reference compound] had a CC50 at 72 h in series [1] greater than 30 µM. The “antiviral effect of positive controls in the CPE assay” value in the series with SARS-CoV-2 (WA1) is reported as “dose dependent antiviral effect”. Besides, the IC50 with SARS-CoV-2 (WA1) (setting [3]) worked out at 4030 nM.

Consider `CCN(CCO)CCCC(C)Nc1ccnc2cc(Cl)ccc12` (stereo not drawn) [Hydroxychloroquine, reference compound], for which, in series [1] (Vero E6 cells), the CC50 at 72 h was greater than 30 µM. For the same molecule, the IC50 in the series on SARS-CoV-2 (WA1) (setting [3]) is 2100 nM. For `CCC(CC)COC(=O)[C@H](C)N[P@](=O)(OC[C@H]1O[C@@](C#N)(c2ccc3c(N)ncnn23)[C@H](O)[C@@H]1O)Oc1ccccc1` [Remdesivir, reference compound], the CC50 at 72 h in series [1] is greater than 30 µM. Besides, the IC50 is 7000 to 10000 nM in the series on SARS-CoV-2 (WA1) (setting [4]); 10800 nM with SARS-CoV-2 (WA1) (Severe acute respiratory syndrome coronavirus 2, Vero C1008, 72 h, read-out: Antiviral IC50); 13 nM with 229E virus (Huh7.5, 48 h); 9.7 nM in the series with OC43 virus (setting [5]). Moreover, in the series with SARS-CoV-2 (WA1) (reference compounds, Round 2), the “Selectivity Index (CC50/IC50)” value was greater than 2.8.

Regarding `Cc1ccc(Nc2nc(Nc3ccc(C)c(C)c3)nc(N3CCOCC3)n2)cc1` [VIRADEM-11141], the IC50 in the series with SARS-CoV-2 (WA1) (setting [4]) is 120 nM; in series [2] it was 97 nM; in the series with 229E virus (Huh7.5, 48 h), 260 nM; in the series with OC43 virus (setting [5]), 1650 nM. The 90% effect level in series [2] (IC90) was put at 118 nM. As for `CC(=O)Nc1ccc(Nc2nc(Nc3ccc(Cl)cc3)nc(N3CCOCC3)n2)cc1` [VIRADEM-11847, N-{4-[4-(4-Chlorophenylamino)-6-morpholin-4-yl-[1,3,5]triazin-2-ylamino]-phenyl}-acetamide], the IC50 came to 20 nM in the series with SARS-CoV-2 (WA1) (setting [6]); 32 nM in series [2]; 138 nM in the series with 229E virus (48 h, Huh7.5 cells, fixed 2 days after infection); 992 nM in the series with OC43 virus (Betacoronavirus 1, OC43, 72 h, Huh7.5 cells, fixed 3 days after infection). For the same molecule, in series [2], the 90% effect level (IC90) was put at 41 nM.

`CC(=O)Nc1ccc(Nc2nc(Nc3ccc(C)c(C)c3)nc(N3CCOCC3)n2)cc1` [VIRADEM-11918, N-{4-[4-(3,4-Dimethylphenylamino)-6-morpholin-4-yl-[1,3,5]triazin-2-ylamino]phenyl}-acetamide]: in series [2], the IC50 came to 19 nM and it took 29 nM to reach the 90% level (IC90). Regarding `Cc1ccc(Nc2nc(N3CCOCC3)nc(N3CCC(C)CC3)n2)cc1C` [VIRADEM-15231, (3,4-Dimethylphenyl)-[4-(4-methylpiperidin-1-yl)-6-morpholin-4-yl-[1,3,5]triazin-2-yl]-amine], the IC50 with SARS-CoV-2 (WA1) (setting [6]) was found to be 350 nM. Still for that read-out and setting: with `c1coc(CNc2nc(N3CCOCC3)nc(N3CCOCC3)n2)c1` [VIRADEM-15234, (4,6-Dimorpholin-4-yl-[1,3,5]triazin-2-yl)-furan-2-ylmethylamine] the figure was greater than 1000 nM; with `COc1ccc(CCNc2nc(N3CCOCC3)nc(N3CCOCC3)n2)cc1OC` [VIRADEM-15243, [2-(3,4-Dimethoxyphenyl)-ethyl]-(4,6-dimorpholin-4-yl-[1,3,5]triazin-2-yl)-amine], greater than 1000 nM; with `CCc1cccc(Nc2nc(N3CCOCC3)nc(N3CCOCC3)n2)c1` [VIRADEM-15248, (4,6-Dimorpholin-4-yl-[1,3,5]triazin-2-yl)-(3-ethylphenyl)-amine], greater than 1000 nM. Consider `COc1ccc(Nc2nc(Nc3cccc4ccccc34)nc(N3CCOCC3)n2)cc1` [VIRADEM-15262, N-(4-Methoxyphenyl)-6-morpholin-4-yl-N^1-naphthalen-[1,3,5]triazine-2,4-diamine], for which, in the series with SARS-CoV-2 (WA1) (setting [7]), the IC50 was found to be 440 nM. Regarding `COc1ccc(Nc2nc(N3CCOCC3)nc(N3CCCc4ccccc43)n2)cc1` [VIRADEM-15272, [4-(3,4-Dihydro-2H-quinolin-1-yl)-6-morpholin-4-yl-[1,3,5]triazin-2-yl]-(4-methoxyphenyl)-amine], the IC50 in the series with SARS-CoV-2 (WA1) (setting [6]) is greater than 1000 nM.

In the case of `Cc1ccc(Nc2nc(N3CCOCC3)nc(N3CCCc4ccccc43)n2)cc1C` [VIRADEM-15278, [4-(3,4-Dihydro-2-H-quinolin-1-yl)-6-morpholin-4-yl-[1,3,5]triazin-2-yl]-(3,4-dimethylphenyl)-amine], the IC50 with SARS-CoV-2 (WA1) (setting [7]) was determined as 120 nM.

In the case of `Cc1ccc(Nc2nc(Nc3cccc4ccccc34)nc(N3CCOCC3)n2)cc1` [VIRADEM-15279, 6-Morpholin-4-yl-N-naphtalen-1-yl-N^1-p-tolyl-[1,3,5]triazine-2,4-diamine], in the series on SARS-CoV-2 (WA1) (setting [7]), the IC50 was 80 nM. Same read-out and setting: then `Cc1ccc(S(=O)(=O)NNc2nc(N3CCOCC3)nc(N3CCOCC3)n2)cc1` [VIRADEM-15295, N-(4,6-Dimorpholin-4-yl-[1,3,5]triazin-2-yl)-N^1-tozylhydrazin], with greater than 1000 nM. Take `c1ccc2c(c1)CCN2c1nc(N2CCOCC2)nc(N2CCOCC2)n1` [VIRADEM-15355, 1-(4,6-Dimorpholin-4-yl-[1,3,5]triazin-2-yl)-2,3-dihydro-1H-indole]: the IC50 with SARS-CoV-2 (WA1) (setting [6]) is greater than 1000 nM.

As to `COc1ccc(Nc2nc(Nc3ccc(C(N)=O)cc3)nc(N3CCOCC3)n2)cc1` [VIRADEM-15356, 4-[4-(4-Methoxyphenylamino)-6-morpholin-4-yl-[1,3,5]triazin-2-ylamino]-benzamide], the IC50 in the series with SARS-CoV-2 (WA1) (setting [6]) was determined as 120 nM. On the same count and under the same terms, with `NC(=O)C1CCN(c2nc(N3CCOCC3)nc(N3CCOCC3)n2)CC1` [VIRADEM-15361, 1-(4,6-Dimorpholin-4-yl-[1,3,5]triazin-2-yl)-piperidine-4-carboxylic acid amide] the figure was greater than 1000 nM; with `C1CCCN(c2nc(N3CCOCC3)nc(N3CCOCC3)n2)CC1` [VIRADEM-16523, 1-(4,6-Dimorpholin-4-yl-[1,3,5]triazin-2-yl)-azepane], greater than 1000 nM. Consider `COc1ccc(Nc2nc(Nc3cccc(C)c3)nc(N3CCOCC3)n2)cc1` [hydrochloride], for which the IC50 in the series with SARS-CoV-2 (WA1) (setting [4]) came out at 230 nM. For “N-(3-Chlorophenyl)-N^1-phenyl)-6-pyrrolidin-1-yl-[1,3,5]triazine-2,4-diamine hydrochloride [VIRADEM-12312]”, in the series on SARS-CoV-2 (WA1) (setting [7]), the IC50 is greater than 1000 nM.

Take “N-(3-Fluorophenyl)-6-pyrrolidin-1-yl-1,3,5]triazine-2,4-diamine hydrochloride [VIRADEM-12180]”: the IC50 in the series with SARS-CoV-2 (WA1) (setting [7]) is greater than 1000 nM.
